Results from ChEMBL document CHEMBL2396563, “Inhibitory constituents of the heartwood of Dalbergia odorifera on nitric oxide production in RAW 264.7 macrophages” (Bioorg Med Chem Lett, 2013).

Columns and labels:
[1] = Cytotoxicity against mouse RAW264.7 cells by CCK assay; assay type: cell-based
[2] = Antiinflammatory activity in mouse RAW264.7 cells assessed as inhibition of LPS-induced nitric oxide production after 24 hrs by Griess assay; assay type: functional, cell-based; settings: RAW264.7, 24 h

IC50 [2]	Structure (SMILES)	Activity [1]
> 100 µM	O=C1C[C@@H](c2cc(O)cc(O)c2)Oc2cc(O)cc(O)c21	Non-toxic
83.7 µM	COc1ccc2c(c1)O[C@H]1c3ccc(O)cc3OC[C@@H]21	Non-toxic
> 100 µM	COc1cc(OC)c([C@H]2COc3cc(O)ccc3C2=O)cc1OC	Non-toxic
> 100 µM	COc1cc2c(cc1O)C(=O)C[C@@H](c1ccc(O)cc1)O2	Non-toxic
45.5 µM	COc1cc2oc(=O)cc(-c3ccc(O)c(O)c3)c2cc1O	Non-toxic
70.3 µM	C=C[C@H](c1cccc(O)c1)c1cc(OC)c(OC)cc1OC	Non-toxic
73.9 µM	C=C[C@H](c1ccccc1)c1cc(OC)c(OC)cc1O	Non-toxic
> 100 µM	O=C(c1ccc(O)cc1O)[C@H](O)Cc1ccc(O)c(O)c1	Non-toxic
> 100 µM	O=C(c1ccc(O)cc1O)[C@H](O)Cc1ccc(O)cc1	Non-toxic
> 100 µM	COc1cc2c(=O)c3ccccc3oc2cc1O	Non-toxic
> 100 µM	COc1ccc([C@@]2(O)COc3cc(O)ccc3C2=O)c(OC)c1	Non-toxic
> 100 µM	COc1ccc(-c2coc3cc(O)ccc3c2=O)c(OC)c1 [2'-METHOXYFORMONETIN]	Non-toxic
74 µM	C=C[C@H](c1ccccc1O)c1cc(OC)c(OC)cc1OC [5-O-METHYLLATIFOLIN]	Non-toxic
> 100 µM	COc1ccc([C@@H]2COc3cc(O)ccc3C2=O)c(OC)c1OC [(3R)-3'-O-METHYLVIOLANONE]	Non-toxic
> 100 µM	COc1ccc([C@@H]2COc3cc(O)ccc3C2=O)c(OC)c1 [(3R)-SATIVANONE]	Non-toxic
> 100 µM	COc1ccc([C@@H]2COc3cc(O)ccc3C2=O)c(OC)c1O [(3R)-VIOLANONE]	Non-toxic
35.1 µM	O=C(/C=C/c1ccc(O)c(O)c1)c1ccc(O)cc1O [BUTEIN]	Non-toxic
> 100 µM	O=c1c(-c2ccc(O)cc2)coc2cc(O)ccc12 [DAIDZEIN]	Non-toxic
56.1 µM	COc1ccc(-c2coc3cc(O)ccc3c2=O)cc1 [FORMONONETIN]	Non-toxic
72 µM	O=C(/C=C/c1ccc(O)cc1)c1ccc(O)cc1O [ISOLIQUIRITIGENIN]	Non-toxic
73.2 µM	C=C[C@H](c1ccccc1O)c1cc(O)c(OC)cc1OC [LATIFOLIN]	Non-toxic
53.2 µM	COc1cc2oc(=O)cc(-c3ccc(O)cc3)c2cc1O [MELANETTIN]	Non-toxic
45.5 µM	COc1cc(-c2coc3cc(O)cc(O)c3c2=O)c(OC)cc1O [OLIBERGIN A]	Non-toxic
43.7 µM	O=c1c(-c2ccc(O)c(O)c2)coc2cc(O)cc(O)c12 [OROBOL]	Non-toxic
18.1 µM	O=C1C[C@@H](c2ccccc2)Oc2cc(O)cc(O)c21 [PINOCEMBRIN]	Non-toxic
53.5 µM	COc1cc(O)c2c(c1)O[C@H](c1ccccc1)CC2=O [PINOSTROBIN]	Non-toxic

Structure (SMILES)	IC50 [2]	Activity [1]
N=C(N)NN [PIMAGEDINE]	16.6 µM	–
